Values after ≈ are worked out from the molar mass of the structure shown. Active and inactive are the calls of the source. The rule behind the calls is not given here.

The test system of one experiment is OVCAR-3. Description: Cytotoxicity against human OVCAR-3 upto 20 ug/mL after 48 hrs. In kind it is functional, cell-based.
Details: not given
As for `C=C(C)[C@@H]1CC[C@](C)(O)[C@H]2CC[C@](C)(O)[C@H]2C1`, the result was inactive.
`Cc1cc(C(=O)O)cc2c1CCC2C` (stereo unspecified): the result was inactive.
For `Cc1coc2c1C(=O)[C@@H]1[C@@](C)(C2)[C@H](O)CC[C@@]1(C)O`, the result was inactive.

The next experiment has as its system OVCAR-3. Kind of experiment: Cytotoxicity against human OVCAR-3 after 48 hrs. In kind it is functional. The conditions noted are these: OVCAR-3, 48 h, read-out: CD50 (the source's name).
As for `O=C(/C=C/c1ccc(O)cc1)CC(=O)/C=C/c1ccc(O)cc1` [BISDEMETHOXYCURCUMIN], the CC50 was found to be 3.1 µg/mL (≈ 10.1 µM).
In the case of `COc1cc(/C=C/C(=O)CC(=O)/C=C/c2ccc(O)c(OC)c2)ccc1O` [CURCUMIN], the CC50 was found to be 4.4 µg/mL (≈ 11.9 µM).
Turning to `COc1cc(/C=C/C(O)=C/C(=O)/C=C/c2ccc(O)cc2)ccc1O` [DEMETHOXYCURCUMIN], the CC50 was found to be 3.8 µg/mL (≈ 11.2 µM).

(Values after ChEMBL document CHEMBL1151327, “Cytotoxicity of curcuminoids and some novel compounds from Curcuma zedoaria” (1998).)
